Measurements published in patent US20020091086A1, “Peptides that block viral infectivity and methods of use thereof” (priority 1999, published 2002).
Where two headings read alike, the source gives them in different places. Peptide text beside a SMILES is read from it.

Experiments:
HIV-1 [1] = conditions: 100 μM, HUT78 cells
Procedure: In experiment 6 (Table 7 and FIG. 1), approximately 200,000 HUT78 cells were infected with HIV-1 at 25 TCID50 to test the inhibitory effect of GPG-NH2, RQG-NH2, KQG-NH2, ALG-NH2, GVG-NH2, VGG-NH2, ASG-NH2, SLG-NH2, and SPT-NH2. The HUT cells were resuspended in lml of RPMI 1640 medium supplemented with 10% (v/v) heat-inactivated fetal bovine serum (FBS, GIBCO), penicillin (100 u/ml), streptomycin (100 u/ml) and Polybrene (Sigma, 2 μg/ml) with or without the presence of the different small peptides (100 μM) mentioned above. Thereafter, the HIV-1 virus was added at 25 TCID50 in a volume of 20 μl. Cells were incubated with the virus at 37° C. for one hour and, subsequently, the cells were pelleted at 170×g for seven minutes. The cells were then washed three times in RPMI medium without peptides at room temperature by cell sedimentation at 170×g for seven minutes, as above. After the final wash, the cells were resuspended in RPMI culture medium containing the peptides in 24-well plate (Costar corporation) and were kept at 37° C. in 5% CO2 with humidity. Culture supernatants were collected when medium was changed at day 4, 7, and 11 post infection and viral p24 production was monitored by using an HIV-1 p24 ELISA kit (Abbott Laboratories, North Chicago, USA).

HIV-1 [2] = conditions: H9 cells; for Day 7 RT HIV-1 / Day 10 RT HIV-1: 100 μM; for HIV-1 infection, result in words: summary of Experiments 1-5
Source text: (§1) In this example, the methods that were used to analyze the ability of various tripeptides to inhibit HIV-1, HIV-2, and SIV replication are disclosed. In Experiments 1 and 2, approximately 200,000 H9 cells were infected with HIV-1, HIV-2 or SIV at 25 TCID50 to test the inhibitory effect of the following synthesized tripeptides LKA-NH2, ILK-NH2, GPQ-NH2, GHK-NH2, GKG-NH2, ACQ-NH2, CQG-NH2, ARV-NH2, KAR-NH2, HKA-NH2, GAT-NH2, KAL-NH2, and GPG-NH2. Accordingly, the H9 cells were resuspended with or without the different peptides (approximately 100 μM) in 1 ml of RPMI 1640 medium supplemented with 10% (v/v) heat-inactivated fetal bovine serum (FBS), penicillin (100 u/ml), and streptomycin (100 u/ml), all available through GIBCO, and Polybrene (2 μg/ml), available through Sigma. Thereafter, viruses were added at 25 TCID50 in a volume of 20-30μl. Cells were incubated with virus at 37° C. for 1 hr then pelleted at 170×g for 7 minutes. The cells were then washed three times in RPMI medium without peptides at room temperature and pelleted at 170×g for 7 minutes, as above. After the final wash, the cells were resuspended in RPMI culture medium containing the peptides in a 24-well plate (Costar corporation) and were kept at 37° C. in 5% CO2 with humidity.
(§2) Culture supernatants were collected and analyzed when the medium was changed at 4, 7, 10, and 14 days post infection. To monitor the replication of virus, reverse transcriptase (RT) activity in the supernatants was assayed using a commercially available Lenti-RT activity kit. (Cavidi Tech, Uppsala, Sweden). The amount of RT was determined with the aid of a regression line of standards. The results are presented as absorbance values (OD) and higher absorbance indicates a higher protein concentration and greater viral infection. Syncytium formation was also monitored by microscopic examination.
In Experiment 3, (Table 4), approximately 200,000 H9 cells were infected with HIV-1, HIV-2 or SIV at 25 TCID50 to test the inhibitory effect of different concentrations of peptides GPG-NH2, GKG-NH2 and CQG-NH2 and combinations of these peptides (the indicated concentration corresponds to the concentration of each tripeptide). As above, H9 cells were resuspended with or without the different peptides at varying concentrations in 1 ml of RPMI 1640 medium supplemented with 10% (v/v) heat-inactivated fetal bovine serum (FBS), penicillin (100 u/ml), and streptomycin (100 u/ml), and Polybrene (2 μg/ml). Thereafter, viruses were added at 25 TCID50 in a volume of 20-30 μl. Cells were incubated with the indicated virus at 37° C. for 1 hr then pelleted at 170×g for 7 minutes. The cells were then washed three times in RPMI medium without peptides at room temperature and pelleted at 170×g for 7 minutes, as above. After the final wash, the cells were resuspended in RPMI culture medium containing the peptides in a 24-well plate (Costar corporation) and kept at 37° C. in 5% CO2 with humidity.
Culture supernatants were collected when the medium was changed at 4, 7, and 11 days post infection. As above, the replication of each virus was monitored by detecting reverse transcriptase (RT) activity in the supernatants using the Lenti-RT activity kit. (Cavidi Tech). The amount of RT was determined with the aid of a regression line of standards. The results are presented as absorbance values (OD) and higher absorbance indicates a higher protein concentration and greater viral infection.
In Experiment 4, (Table 5) approximately 200,000 H9 cells were infected with HIV-1 at 25 TCID50 to test the inhibitory effect of different concentrations of peptides GPG-NH2, GKG-NH2 and CQG-NH2 and combinations of these peptides (the indicated concentration corresponds to the total concentration of tripeptide).

SIV = SIV infectivity assay in H9 cells, RT activity in supernatant; format: cell-based
HIV-2 = HIV-2 infectivity assay in H9 cells, RT activity in supernatant; format: cell-based
HIV-1 [3] = conditions: H9 cells; for HIV-1 Syncytia: 100 μM; for HIV-1 syncytia formation, result in words: summary of Experiments 1-2
Source text: as §1, §2

Compound | p24 (HIV-1 [1]; Experiment 6, Day 7 HIV-1) [pg/mL] | reduction (%) (HIV-1 [1]; Experiment 6, Day 7 HIV-1) | HIV-1 infection, result in words (HIV-1 [1]; summary of Experiment 6) | Day 7 RT HIV-1 (HIV-1 [2]; Experiment 1) [OD] | Day 10 RT HIV-1 (HIV-1 [2]; Experiment 1) [OD] | Day 7 RT HIV-1 (HIV-1 [2]; Experiment 2) [OD] | Day 10 RT HIV-1 (HIV-1 [2]; Experiment 2) [OD] | HIV-1 infection, result in words (HIV-1 [2]) | Day 7 RT SIV (SIV; Experiment 1, 100 μM) [OD] | Day 10 RT SIV (SIV; Experiment 1, 100 μM) [OD] | Day 7 RT SIV (SIV; Experiment 2, 100 μM) [OD] | Day 10 RT SIV (SIV; Experiment 2, 100 μM) [OD] | Day 7 RT HIV-2 (HIV-2; Experiment 1, 100 μM) [OD] | Day 10 RT HIV-2 (HIV-2; Experiment 1, 100 μM) [OD] | Day 7 RT HIV-2 (HIV-2; Experiment 2, 100 μM) [OD] | Day 10 RT HIV-2 (HIV-2; Experiment 2, 100 μM) [OD] | HIV-1 Syncytia (HIV-1 [3]; Experiment 1) | HIV-1 Syncytia (HIV-1 [3]; Experiment 2) | HIV-1 syncytia formation, result in words (HIV-1 [3])
CC(C)C[C@H](NC(=O)[C@H](C)N)C(=O)NCC(N)=O [ALG-NH2, alanyl-leucyl-glycine amide] (H-Ala-Leu-Gly-NH2) | 42 | ~100 | inhibited and/or prevented HIV-1 infection |  |  |  |  |  |  |  |  |  |  |  |  |  |  |  | 
Ala-Arg-Val [ARV-NH2] |  |  |  | 0.156 | 1.528 | 0.618 | 2.829 | failed to prevent infection | 0.210 | 1.172 | 0.212 | 3.004 | 3.380 | 3.003 | 2.237 | 2.628 | pos | pos | 
Ala-Cys-Gln [ACQ-NH2] |  |  |  | 0.117 | 0.904 | 0.606 | 2.831 | did not prevent HIV infection | 1.241 | 2.746 | 0.612 | 2.606 | 3.418 | 2.753 | 1.661 | 2.505 | pos | pos | 
Gly-Ala-Thr [GAT-NH2] |  |  |  | 0.116 | 1.565 | 0.776 | 2.800 | failed to prevent infection | 0.892 | 2.343 | 0.572 | 2.776 | 3.461 | 2.835 | 1.707 | 2.565 | pos | pos | failed to prevent infection and HIV-1 syncytia formation
Gly-His-Lys [GHK-NH2] |  |  |  | 0.289 | 2.151 | 0.829 | 3.013 | failed to prevent infection | 0.097 | 2.384 | 0.396 | 2.394 | 3.522 | 2.931 | 1.936 | 2.418 | pos | pos | failed to prevent infection and HIV-1 syncytia formation
